One series relates to MM cells. Nature of the series: Proliferation assay (CellTiter-Glo), concentration of 50% growth inhibition. In kind it is cell-based. Particulars: Homo sapiens; read-out: Concentration at which 50% cell growth inhibition was observed. How it is done:
Human MM cell lines used were as follows: NCI-H929, OPM-2, LP-1, RPMI-8226, U266 (DSMZ, Braunschweig, Germany). Cell lines were cultured in RPMI 1640 medium (Biochrom, Berlin, Germany) supplemented with 10% heat-inactivated fetal calf serum (FCS, Gibco, Karlsruhe, Germany), 1 mM sodium pyruvate and 100 units/ml penicillin and 100 μg/ml streptomycin (Gibco). Human osteoclasts were obtained as described in the reference of Zavrski I, Krebbel H, Wildemann B, et al. Proteasome inhibitors abrogate osteoclast differentiation and osteoclast function. Biochem Biophys Res Commun. 2005; 333:200-205. Briefly, peripheral blood mononuclear cells (PBMC) were isolated from whole blood of healthy volunteers, using a Ficoll-Hypaque density gradient. The adherent fraction of the isolated mononuclear cells was cultured for 21 days in MEM medium (Sigma-Aldrich Chemie, Taufkirchen, Germany) supplemented with 10% FCS, 100 U/ml penicillin, 100 μg/ml streptomycin, 50 ng/ml M-CSF, and 25 ng/ml RANKL (osteoclastogenic medium), before coculture experiments and treatment with the inventive compounds started. Human osteoblasts were obtained according to Robey P G, Termine J D. Human bone cells in vitro. Calcif Tissue Int. 1985; 37:453-460 as described in Hecht M, Heider U, Kaiser M, von Metzler I, Sterz J, Sezer O. Osteoblasts promote migration and invasion of myeloma cells through upregulation of matrix metalloproteinases, urokinase plasminogen activator, hepatocyte growth factor and activation of p38 MAPK. Br J Haematol. 2007; 138: 446-458. Briefly, trabecular bone specimens from patients without malignant disease undergoing knee or hip surgery were minced and washed to remove bone marrow cells. The bone fragments were resuspended in Dulbecco's modified Eagle's medium (DMEM)/HAM's F12 medium (Biochrom, Berlin, Germany) supplemented with 10% FCS and cultured in tissue culture flasks until a confluent cell monolayer was obtained. Culturing of functional osteoblasts was confirmed by alkaline phosphatase (ALP) staining (kit from Sigma, USA), realtime RT-PCR analysis of expression of osteoblast markers (ALP, osteocalcin) and by von-Kossa staining before coculture and treatment experiments were started.
(§1) The compound according to example 1, hereinafter referred to as GSI15, (compound RH02015SC, Maybridge, Acros Organics, Geel, Belgium) was freshly dissolved as 26 mM stock solution in Dimethylsulfoxide (DMSO). Multiple myeloma therapeutics used were melphalan (marketed as Alkeran®, GlaxoSmithKline, Munich, Germany) and bortezomib (marketed as Velcade®, Janssen-Cilag, Neuss, Germany). Melphalan was freshly dissolved at 10 mg/ml in 0.9% NaCl-solution. Bortezomib was freshly dissolved at 100 ng/ml in 0.9% NaCl solution. Gamma Secretase Inhibitor (GSI) treatment for apoptosis assessment by AnnexinV/PI staining, cell cycle analysis and coculture experiments was performed in 6-well plates. GSI15 stock solution was added directly to the cell suspension. GSI treatment for assaying proliferation was performed in 96-well plates. 10,000 cells per well were seeded in 50 μl medium per well before 50 μl of a 2× solution of GSI15 prediluted in medium were added per well. […]
For assaying proliferation/viability of cells CellTiter-Glo Luminescent Cell Viability Assay (Promega, Mannheim, Germany) was used. In this assay the number of viable cells at a given time point is determined by quantification of ATP present, which serves as a measure of metabolically active cells. […]
In general terms: In ATP-based viability assays light output follows the ATP content of the culture.

The next series concerns Hes-1. Description: Quantitative RT-PCR of Notch1 target gene Hes-1 in OPM-2 cells. In kind it is cell-based, human. Particulars: OPM-2 cells treated with GSI15. How it is done:
Quantitative real-time reverse transcription-PCR (RT-PCR) analysis was performed using the following primer/probe sets: human Hes-1 (forward—[…], reverse—[…], probe—FAM-[…]-TAMRA) human TRAP5 (forward—[…], reverse—[…], probe FAM-[…]-TAMRA), human beta2-microglobulin (forward—ccc cca ctg aaa aag atg ag, reverse—atc caa tcc aaa tgc ggc, probe—FAM-CCTGCCGTGTGAACCATGTGACTTT-TAMRA) served as normalizer. Total RNA was extracted from MM cells, human osteoclasts or human osteoblasts using RNeasy Mini Kit (Qiagen, Hilden, Germany) following the manufacturer's instructions. For the RT-PCR reaction SuperScript™ III Platinum® One-Step Quantitative RT-PCR System (Invitrogen, Karlsruhe, Germany) was used. 50 ng total RNA were used per reaction, each RNA sample was analyzed in three replicates. PCR conditions (40 cycles) were the following: reverse transcription at 50° C. for 30 minutes, initial denaturation at 95° C. for 10 minutes, followed by 40 cycles of 45 seconds denaturation at 95° C. and 60 seconds annealing/extension at 62° C. Amplification of the house-keeping gene beta2-microglobulin was used to normalize the expression data. Normalized mRNA expression data were then calculated as values relative to the respective untreated sample.

The subject of a further series is LP-1 cells. Nature of the series: Cell cycle analysis (propidium iodide), sub-G1 fraction, LP-1. In kind it is cell-based, human. The following applies: LP-1, after 72 h. The protocol:
as §1, with “plates.” for “plates. 10,000 cells per well were seeded in 50 μl medium per well before 50 μl of a 2× solution of GSI15 prediluted in medium were added per well.”
For cell cycle analysis 2×10^5 cells were spun down, medium was aspirated and cells washed with PBS. […] After 10 minutes incubation in the dark at room temperature, cells were analyzed by flow cytometry. The amount of apoptotic cells was determined by AnnexinV/propidium iodide staining using Human AnnexinV-FITC Kit (Bender Medsystems, Vienna, Austria), according to manufacturer's protocol. […] Cells were then spun down again, resuspended in binding buffer containing PI and analyzed by flow cytometry.

Series [1] can be described thus: Physiological compatibility, parenteral administration in mice. Particulars: in vivo, other: parenteral, mouse. The protocol:
The compound according to example 1 was tested for its physiological compatibility via parenteral administration in mice. The LD50 (parenteral, mouse) is 800 mg/kg. Accordingly compound 1 can be considered to be physiologically compatible.

Each structure is given as a SMILES string. pIC50: −log10 of the molar value.

As a reminder, the LD50 is the dose expected to kill half of the subjects tested. Take `CC(C)c1ccc(S(=O)(=O)Nc2cccnc2Oc2ccc(Cl)cc2)cc1` [Example 1, N-(2-(4-chlorophenoxy)pyridin-3-yl)-4-isopropylbenzenesulfonamide]: the pIC50 in the series with MM cells is 4.70. Further, the “Hes-1 expression (Notch1 target gene)” value in the series on Hes-1 was “dose-dependently downregulated”. Further, the sub-G1 fraction entry in the series on LP-1 cells is given as “increase in the sub-G1 fraction”. Further, in series [1], the LD50 worked out at 800 mg/kg.

These data come from patent US20110251220A1, “Pharmaceutical compositions comprising gamma secretase modulators” (priority 2008, published 2011).
